Laboratory results: patent publication US20100261753A1, “METHODS FOR PREVENTING AND/OR TREATING DEGENERATIVE DISORDERS OF THE CENTRAL NERVOUS SYSTEM” (AMICUS THERAPEUTICS, INC., priority 2009, published 2010)
Structures can show the parent of a compound that is named as a salt.

Assays:
GCase = biological target: T1, GCase (Homo sapiens, UniProt P04062); experiment: GCase activity enhancement (EC50, Emax; Table 2B); assay type: cell-based
T1 sequence (P04062 40-536): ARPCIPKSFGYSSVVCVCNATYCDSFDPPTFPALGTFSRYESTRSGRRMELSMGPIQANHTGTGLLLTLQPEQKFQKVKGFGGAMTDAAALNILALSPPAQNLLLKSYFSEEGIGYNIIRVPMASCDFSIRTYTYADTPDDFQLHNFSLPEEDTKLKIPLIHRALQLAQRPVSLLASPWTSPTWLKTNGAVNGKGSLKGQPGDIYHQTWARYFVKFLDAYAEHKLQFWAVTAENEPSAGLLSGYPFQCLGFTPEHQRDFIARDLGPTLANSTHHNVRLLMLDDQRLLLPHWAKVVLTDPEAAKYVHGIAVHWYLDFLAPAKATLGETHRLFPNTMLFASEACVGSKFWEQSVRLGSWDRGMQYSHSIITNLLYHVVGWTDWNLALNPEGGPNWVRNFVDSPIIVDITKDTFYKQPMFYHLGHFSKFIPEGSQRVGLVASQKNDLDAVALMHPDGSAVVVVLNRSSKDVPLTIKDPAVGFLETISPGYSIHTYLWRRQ

[1] = Compound concentration in brain, spleen and plasma samples of the GCase enhancement study; assay type: in vivo, mice (C57BL/6); conditions: male, C57BL/6, mouse, po, nine doses, 24-hour washout
Description: The ability of orally administered test compounds (the hydrochloride salt form of Compound A and Compound B) to elevate GCase levels as compared to reference compound, IFG-tartrate, was assessed in mice. […] Seven animals were used per dose. The dosing solutions were prepared in water. Compounds were administered over 2 weeks as follows: week 1, Mon-Fri (On), Sat-Sun (Off); week 2, Mon-Thu (On); necropsy on Friday. Thus, a total of 9 doses (dosing solutions prepared fresh every day) were given to each mouse, with a 24-hour washout between the last dose and necropsy.
Plasma was collected by spinning blood at 2700 g for 10 minutes at 4° C. Liver, spleen, lung, and brain tissues were removed, washed in cold PBS, blotted dry, flash frozen on dry ice, and stored at −80° C. until analysis. GCase levels were measured by homogenizing approximately 50 mg tissue in 500 μl McIlvane (MI) buffer (100 mM sodium citrate, 200 mM sodium phosphate dibasic, 0.25% sodium taurocholate, and 0.1% Triton X-100, pH 5.2) at pH 5.2 for 3-5 seconds on ice with a micro homogenizer. Homogenates were then incubated at room temperature without and with 2.5 mM conduritol-B-epoxide (CBE) for 30 min. Finally, 3.7 mM 4-methylumbeliferryl-β-glucoside (4-MUG) substrate was added and incubated at 37° C. for 60 min. Reactions were stopped by addition of 0.4 M glycine, pH 10.6. Fluorescence was measured on a plate reader for 1 sec/well using 355 nm excitation and 460 nm emission. Total protein was determined in lysates using the MicroBCA kit according to the manufacturer's instructions. A 4-methylumbelliferone (4-MU) standard curve ranging from 1.0 nM to 50 μM was run in parallel for conversion of raw fluorescence data to absolute GCase activity (in the presence and absence of CBE) and expressed as nanomoles of 4-MU released per milligram of protein per hour (nmol/mg protein/hr). GCase levels and protein levels were calculated using Microsoft Excel (Redmond, Wash.) and GraphPad Prism version 4.02.

`Cl.O[C@@H]1[C@@H](CF)CNC[C@H]1O` [Compound A-HCl, (3R,4R,5R)-5-(fluoromethyl)piperidine-3,4-diol hydrochloride] gave a melting point of 200 to 202 °C.
With `OC[C@H]1CNC[C@@H](O)[C@@H]1O` [IFG-Tartrate, Isofagomine tartrate, reference compound] the Emax (GCase) was 93.6 ± 2.5%.
With `OC[C@H]1CNC[C@@H](O)[C@@H]1O` [IFG, (3R,4R,5R)-5-(hydroxymethyl)-3,4-piperidinediol, reference compound] the concentration at 24 h ([1]; brain, 10 mg/kg, 10 mg/kg p.o., Table 4A) was 49 ± 2.4 nM, the concentration at 24 h ([1]; brain, 100 mg/kg, 100 mg/kg p.o., Table 3A) was 182 ± 13 nM and the concentration at 24 h ([1]; brain, 100 mg/kg, 100 mg/kg p.o., Table 4A) was 287 ± 74 nM. It also gave a concentration at 24 h ([1]; plasma, 10 mg/kg, 10 mg/kg p.o., Table 4C) of 67 ± 10 nM, a concentration at 24 h ([1]; plasma, 100 mg/kg, 100 mg/kg p.o., Table 3C) of 330 ± 36 nM and a concentration at 24 h ([1]; plasma, 100 mg/kg, 100 mg/kg p.o., Table 4C) of 852 ± 134 nM. The concentration at 24 h ([1]; spleen, 10 mg/kg, 10 mg/kg p.o., Table 4B) was 150 ± 12 nM, the concentration at 24 h ([1]; spleen, 100 mg/kg, 100 mg/kg p.o., Table 3B) was 711 ± 100 nM and the concentration at 24 h ([1]; spleen, 100 mg/kg, 100 mg/kg p.o., Table 4B) was 1140 ± 220 nM.
